# Laboratory results reported in patent US9187487B2, “Azaindole derivatives as tyrosine kinase inhibitors” (PRINCIPIA BIOPHARMA, INC., priority 2011, dated 2015).
# Molecular target: recombinant JAK3 (catalytic domain, aa 781-1124) (Homo sapiens (Human), UniProt P52333)
# Assay: JAK3 Caliper Peptide Phosphorylation Assay
# Format: biochemical
# Conditions: fluorescently labeled Srctide substrate 1 uM; ATP at 1×Km (2 uM); 2 hours at 25° C.
# Procedure: JAK3 Caliper Peptide Phosphorylation Assay
# Phosphorylation of the appropriate peptide substrate (fluorescently labeled Srctide) by recombinant JAK3 (catalytic domain, aa 781-1124) was measured in the presence and absence of different concentrations of test compounds. Test compound, enzyme, fluorescently labeled substrate, and cofactors (ATP and Mg^2+) were combined in a well of a microtiter plate and incubated for 2 hours at 25° C. The composition of the reaction buffer was 100 mM HEPES pH 7.5, 5 mM MgCl2, 0.01% Triton-X 100, 0.1% Bovine Serum Albumin, and 1% DMSO. Enzyme concentration in the final reaction mixture was 0.5 nM while peptide substrate was at 1 uM. ATP was used at 1×Km concentration corresponding to 2 uM. Serial dilutions (3-fold steps) of compounds were prepared in DMSO. At the end of the incubation, the reaction was stopped by the addition of 20 mM EDTA. Substrate and product (i.e. phosphorylated substrate) were separated electrophoretically and both were quantified by fluorescence intensity using the microfluidics-based LabChip 3000 Drug Discovery System from Caliper Life Sciences. Conversion for each well was calculated and plotted as function of test compound concentration. IC50 value was determined by fitting the data to a 4-parameter logistic model by non-linear regression (XLfit model 205). In every assay, Staurosporine was tested in the same manner as reference compound. Selectivity for JAK3 was determined using commercially available kinase cross-screening services (DiscoveRx, San Diego, Calif.).
# Sequence of recombinant JAK3 (catalytic domain, aa 781-1124) (P52333 781-1124): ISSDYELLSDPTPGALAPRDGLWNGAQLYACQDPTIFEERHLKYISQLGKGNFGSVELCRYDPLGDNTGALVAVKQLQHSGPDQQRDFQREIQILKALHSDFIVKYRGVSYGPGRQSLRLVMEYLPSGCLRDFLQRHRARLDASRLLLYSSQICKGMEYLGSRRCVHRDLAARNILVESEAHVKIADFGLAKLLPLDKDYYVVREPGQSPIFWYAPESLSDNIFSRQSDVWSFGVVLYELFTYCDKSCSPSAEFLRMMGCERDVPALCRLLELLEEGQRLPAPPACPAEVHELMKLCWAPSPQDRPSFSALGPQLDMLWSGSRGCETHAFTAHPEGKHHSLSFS
row,IC50 [nM],SMILES
1,> 1000,"CN(C)C(=O)C(C#N)=Cc1ccc(N(C)c2ncnc3[nH]ccc23)cc1 [compound 7, 2-cyano-N,N-dimethyl-3-(4-(methyl(7H-pyrrolo[2,3-d]pyrimidin-4-yl)amino)phenyl)acrylamide]"
2,0.2,"CN(C)C(=O)C(C#N)=Cc1ccc(Nc2cnc3[nH]cc(C(=O)NC(C)(C)C)c3n2)cc1 [compound 71, N-(tert-butyl)-2-((4-(2-cyano-3-(dimethylamino)-3-oxoprop-1-en-1-yl)phenyl)amino)-5H-pyrrolo[2,3-b]pyrazine-7-carboxamide]"
3,1270,"Cc1c(C=C(C#N)C(=O)N(C)C)cccc1Nc1ncnc2[nH]ccc12 [compound 16, 3-(3-((7H-pyrrolo[2,3-d]pyrimidin-4-yl)amino)-2-methylphenyl)-2-cyano-N,N-dimethylacrylamide]"
4,1150,"CC(C)NC(=O)c1c[nH]c2ncc(Oc3cccc(C=C(C#N)C(=O)N(C)C)c3)nc12 [compound 51, 2-(3-(2-cyano-3-(dimethylamino)-3-oxoprop-1-en-1-yl)phenoxy)-N-isopropyl-5H-pyrrolo[2,3-b]pyrazine-7-carboxamide]"
5,1770,"CN(C)C(=O)C(C#N)=Cc1cc(Nc2ncnc3[nH]ccc23)ccc1Cl [compound 17, 3-(5-((7H-pyrrolo[2,3-d]pyrimidin-4-yl)amino)-2-chlorophenyl)-2-cyano-N,N-dimethylacrylamide]"
6,5.5,"CN(C(=O)C(C#N)=Cc1ccc(Nc2cnc3[nH]cc(C(=O)C(C)(C)C)c3n2)cc1)c1ccccc1 [compound 85, 2-cyano-N-methyl-N-phenyl-3-(4-((7-pivaloyl-5H-pyrrolo[2,3-b]pyrazin-2-yl)amino)phenyl)-acrylamide]"
7,150,"CN(C)C(=O)C(C#N)=Cc1cccc(Nc2ncnc3[nH]ccc23)c1 [compound 3, 3-(3-((7H-pyrrolo[2,3-d]pyrimidin-4-yl)amino)-phenyl)-2-cyano-N,N-dimethylacrylamide]"
8,0.7,"CC(C)NC(=O)c1c[nH]c2ncc(Nc3ccc(C=C(C#N)C(=O)N4CCOCC4)cc3)nc12 [compound 80, N-(isopropyl)-2-((4-(2-cyano-3-morpholino-3-oxoprop-1-en-1-yl)phenyl)amino)-5H-pyrrolo[2,3-b]pyrazine-7-carboxamide]"
9,100,"CCOC(=O)C(C#N)=Cc1ccc(Nc2cnc3[nH]cc(C(=O)C(C)(C)C)c3n2)cc1 [compound 79, ethyl 2-cyano-3-(4-((7-pivaloyl-5H-pyrrolo[2,3-b]-pyrazin-2-yl)amino)phenyl)acrylate]"
10,38.3,"CC(C)(C)C(=O)c1c[nH]c2ncc(Nc3ccc(C=C(C#N)c4nccs4)cc3)nc12 [compound 82, 3-(4-((7-pivaloyl-5H-pyrrolo[2,3-b]pyrazin-2-yl)amino)phenyl)-2-(thiazol-2-yl)acrylonitrile]"
11,0.9,"CN(C)C(=O)C(C#N)=Cc1ccc(Nc2cnc3[nH]cc(C(=O)C(C)(C)C)c3n2)cn1 [compound 70, 2-cyano-N,N-dimethyl-3-(5-((7-pivaloyl-5H-pyrrolo[2,3-b]pyrazin-2-yl)amino)pyridin-2-yl)acrylamide]"
12,104,"CN(C)C(=O)C(C#N)=Cc1cccc(-c2cnc3[nH]cc(C(=O)C(C)(C)C)c3n2)c1 [compound 97, 2-cyano-N,N-dimethyl-3-(3-(7-pivaloyl-5H-pyrrolo[2,3-b]pyrazin-2-yl)phenyl)acrylamide]"
13,680,"CN(C)C(=O)C(C#N)=Cc1ccc(-c2cnc3[nH]cc(C(=O)C(C)(C)C)c3n2)cc1 [compound 96, 2-cyano-N,N-dimethyl-3-(4-(7-pivaloyl-5H-pyrrolo[2,3-b]pyrazin-2-yl)phenyl)acrylamide]"
14,580,"CN(C)C(=O)C(C#N)=Cc1ccc(Nc2ncnc3[nH]ccc23)cc1 [compound 6, 3-(4-((7H-pyrrolo[2,3-d]pyrimidin-4-yl)amino)-phenyl)-2-cyano-N,N-dimethylacrylamide]"
15,345,"CC(C)(C)C(=O)c1c[nH]c2ncc(-c3cccc(NC(=O)C(C#N)=CC4CC4)c3)nc12 [compound 102, 2-cyano-3-cyclopropyl-N-(3-(7-pivaloyl-5H-pyrrolo[2,3-b]pyrazin-2-yl)phenyl)acrylamide]"
16,> 5000,"CN(C)C(=O)C(C#N)=Cc1cccc(Oc2cnc3[nH]cc(C(=O)C(C)(C)C)c3n2)c1 [compound 100, 2-cyano-N,N-dimethyl-3-(3-((7-pivaloyl-5H-pyrrolo[2,3-b]pyrazin-2-yl)oxy)phenyl)acrylamide]"
17,320,"CN(C)C(=O)C(C#N)=Cc1ccc(Oc2cnc3[nH]ccc3n2)cc1 [compound 32, 3-(4-((5H-pyrrolo[2,3-b]pyrazin-2-yl)oxy)phenyl)-2-cyano-N,N-dimethylacrylamide]"

row,IC50 [nM],SMILES
1,> 1000,"CN(C)C(=O)C(C#N)=Cc1cccc(Oc2cnc3[nH]ccc3n2)c1 [compound 31, 3-(3-((5H-pyrrolo[2,3-b]pyrazin-2-yl)oxy)phenyl)-2-cyano-N,N-dimethylacrylamide]"
2,33.5,"CCN1C(=O)SC(=Cc2ccc(Nc3cnc4[nH]cc(C(=O)C(C)(C)C)c4n3)cc2)C1=O [compound 78, 3-ethyl-5-(4-((7-pivaloyl-5H-pyrrolo[2,3-b]pyrazin-2-yl)amino)benzylidene)thiazolidine-2,4-dione]"
3,0.6,"CC(C)(C)C(=O)c1c[nH]c2ncc(Nc3ccc(C=C(C#N)S(C)(=O)=O)cc3)nc12 [compound 81, 2-(methylsulfonyl)-3-(4-((7-pivaloyl-5H-pyrrolo[2,3-b]pyrazin-2-yl)amino)phenyl)-acrylonitrile]"
4,210,"CN(C)C(=O)C(C#N)=Cc1ccc(Nc2cnc3[nH]cc(C(=O)C(C)(C)C)c3n2)s1 [compound 73, 2-cyano-N,N-dimethyl-3-(5-((7-pivaloyl-5H-pyrrolo[2,3-b]pyrazin-2-yl)amino)thiophen-2-yl)acrylamide]"
5,1,"CN(C)C(=O)C(C#N)=Cc1ccc(Nc2cnc3[nH]cc(C(=O)C(C)(C)C)c3n2)cc1 [compound 57, 2-cyano-N,N-dimethyl-3-(4-((7-pivaloyl-5H-pyrrolo[2,3-b]pyrazin-2-yl)amino)phenyl)-acrylamide]"
6,0.5,"CN(C)C(=O)C(C#N)=Cc1ccc(Nc2cnc3[nH]cc(C(=O)C(C)(C)C)c3n2)c(F)c1 [compound 69, 2-cyano-3-(3-fluoro-4-((7-pivaloyl-5H-pyrrolo[2,3-b]pyrazin-2-yl)amino)phenyl)-N,N-dimethylacrylamide]"
7,> 1000,"CN(C)C(=O)C(C#N)=Cc1cccc(Nc2cnc3[nH]ccc3n2)c1 [compound 29, 3-(3-((5H-pyrrolo[2,3-b]pyrazin-2-yl)amino)phenyl)-2-cyano-N,N-dimethylacrylamide]"
8,0.2,"CN1CCN(C(=O)C(C#N)=Cc2ccc(Nc3cnc4[nH]cc(C(=O)C(C)(C)C)c4n3)cc2)CC1 [compound 64, 2-(4-methylpiperazine-1-carbonyl)-3-(4-(7-pivaloyl-5H-pyrrolo[2,3-b]pyrazin-2-ylamino)phenyl)acrylonitrile]"
9,1,"CN(C)C(=O)C(C#N)=Cc1ccc(Nc2cnc3[nH]cc(C(=O)C(C)(C)C)c3n2)cc1Cl [compound 68, 3-(2-chloro-4-(7-pivaloyl-5H-pyrrolo-[2,3-b]pyrazin-2-ylamino)phenyl)-2-cyano-N,N-dimethylacrylamide]"
10,> 1000,"CN(C)C(=O)C(C#N)=Cc1cccc(N(C)c2ncnc3[nH]ccc23)c1 [compound 4, 2-cyano-N,N-dimethyl-3-(3-(methyl(7H-pyrrolo[2,3-d]pyrimidin-4-yl)amino)phenyl)acrylamide]"
11,> 1000,"CN(C)C(=O)C(C#N)=Cc1cccc(Oc2ncnc3[nH]ccc23)c1 [compound 11, 3-(3-((7H-pyrrolo[2,3-d]pyrimidin-4-yl)oxy)phenyl)-2-cyano-N,N-dimethylacrylamide]"
12,305,"CN(C)C(=O)C(C#N)=Cc1cccc(-c2ncnc3[nH]ccc23)c1 [compound 1, 3-(3-(7H-pyrrolo[2,3-d]pyrimidin-4-yl)phenyl)-2-cyano-N,N-dimethylacrylamide]"
13,1,"CC(C)(C)C(=O)c1c[nH]c2ncc(Nc3ccc(C=C(C#N)C(=O)N4CCCCC4)cc3)nc12 [compound 76, 2-(piperidine-1-carbonyl)-3-(4-((7-pivaloyl-5H-pyrrolo[2,3-b]pyrazin-2-yl)amino)phenyl)-acrylonitrile]"
14,3,"CC(C)(C)C(=O)c1c[nH]c2ncc(Nc3ccc(C=C4SC(=O)N(CCN)C4=O)cc3)nc12 [compound 89, 3-(2-aminoethyl)-5-(4-((7-pivaloyl-5H-pyrrolo[2,3-b]pyrazin-2-yl)amino)benzylidene)thiazolidine-2,4-dione]"
15,3,"CN(C)CCN1C(=O)SC(=Cc2ccc(Nc3cnc4[nH]cc(C(=O)C(C)(C)C)c4n3)cc2)C1=O [compound 88, 3-(2-(dimethylamino)ethyl)-5-(4-((7-pivaloyl-5H-pyrrolo[2,3-b]pyrazin-2-yl)amino)-benzylidene)thiazolidine-2,4-dione]"
16,> 1000,"CN(C)C(=O)C(C#N)=Cc1cccc(-c2cnc3[nH]ccc3n2)c1 [compound 27, 3-(3-(5H-pyrrolo[2,3-b]pyrazin-2-yl)phenyl)-2-cyano-N,N-dimethylacrylamide]"
